# Measurements from patent US20130150377A1, “Tetrahydropyridinyl and Dihydropyrrolyl Compounds and the Use Thereof” (SHIONOGI & CO., LTD., priority 2008, published 2013).
# Target: T1, N-type calcium channel (NTCC) (Homo sapiens, UniProt Q00975)
# T1 construct: endogenous in cells; host or cells: differentiated IMR32 cells (ATCC)
# Assay: FLIPR calcium mobilization assay for N-type calcium channel (differentiated IMR32 cells)
# Assay type: cell-based
# Conditions: N-type calcium channel blockers, calcium mobilization in vitro assay
# Protocol: Cell maintenance and differentiation. Unless noted otherwise, cell culture reagents were purchased from Mediatech of Herndon, Md. IMR32 cells (American Type Culture Collection, ATCC, Manassas, Va.) were routinely cultured in growth medium consisting of minimum essential medium containing 10% fetal bovine serum (FBS, Hyclone, Logan, Utah), 100 U/mL penicillin, 100 μg/mL streptomycin, 2 mM L-glutamine, 1 mM sodium pyruvate, and 1×MEM non-essential amino acids. 80-90% confluent flasks of cells were differentiated using the following differentiation medium: Growth medium plus 1 mM dibutyryl cyclic AMP (Sigma, St. Louis, Mo.), and 2.5 μM bromodeoxyuridine (Sigma). Cells were differentiated for 8 days by replacing differentiation medium every 2-3 days.
# FLIPR Calcium Mobilization Assay for N-type Calcium Channel.
# One day prior to performing this assay, differentiated IMR32 cells were treated with 1× CellStripper, and seeded on poly-D-lysine-coated 96-well clear-bottom black plates (Becton Dickinson, Franklin Lakes, N.J.) at 200,000 cells/well. On the day of the assay, the cell plates were washed with IMR32 buffer (127 mM NaCl, 1 mM KCl, 2 mM MgCl2, 700 μM NaH2PO4, 5 mM CaCl2, 5 mM NaHCO3, 8 mM HEPES, 10 mM glucose, pH 7.4), then pre-stimulated with KCl and loaded as follows: […] of IMR32 buffer, 0.05 mL of each compound tested diluted in IMR32 buffer containing 20 μM nitrendipine (Sigma), and 0.1 mL KCl dissolved in IMR32 buffer, plus Fluo-4 were added (3 μM final concentration, Molecular Probes, Eugene, Oreg.). Final test compound concentrations ranged from about 846 pM to about 17 μM, final nitrendipine concentration was 5 μM, and final KCl concentration was 90 mM. After 1 hour, the cells were washed twice with 0.05 mL of each compound tested in nitrendipine-containing IMR32 buffer (no KCl or Fluo-4), and then replaced with 0.1 mL of each compound tested in nitrendipine-containing IMR32 buffer. Plates were then transferred to a Fluorimetric Imaging Plate Reader (FLIPR^96, Molecular Devices, Inc., Sunnyvale, Calif.) for assay. The FLIPR measured basal Fluo-4 fluorescence for 315 seconds (i.e., 5 minutes and 15 seconds), then added 0.1 mL KCl agonist dissolved in IMR32 buffer and measured fluorescence for another 45 seconds. Final test compound concentrations on the cells after FLIPR read ranged from about 846 pM to about 17 μM, final nitrendipine concentration was 5 μM, and final KCl concentration was 90 mM. Data were collected over the entire time course and analyzed using Excel, Graph Pad Prism (version 3.02, Graph Pad, San Diego, Calif.), or an in-house non-linear regression analysis software.
# T1 sequence (Q00975 whole entry): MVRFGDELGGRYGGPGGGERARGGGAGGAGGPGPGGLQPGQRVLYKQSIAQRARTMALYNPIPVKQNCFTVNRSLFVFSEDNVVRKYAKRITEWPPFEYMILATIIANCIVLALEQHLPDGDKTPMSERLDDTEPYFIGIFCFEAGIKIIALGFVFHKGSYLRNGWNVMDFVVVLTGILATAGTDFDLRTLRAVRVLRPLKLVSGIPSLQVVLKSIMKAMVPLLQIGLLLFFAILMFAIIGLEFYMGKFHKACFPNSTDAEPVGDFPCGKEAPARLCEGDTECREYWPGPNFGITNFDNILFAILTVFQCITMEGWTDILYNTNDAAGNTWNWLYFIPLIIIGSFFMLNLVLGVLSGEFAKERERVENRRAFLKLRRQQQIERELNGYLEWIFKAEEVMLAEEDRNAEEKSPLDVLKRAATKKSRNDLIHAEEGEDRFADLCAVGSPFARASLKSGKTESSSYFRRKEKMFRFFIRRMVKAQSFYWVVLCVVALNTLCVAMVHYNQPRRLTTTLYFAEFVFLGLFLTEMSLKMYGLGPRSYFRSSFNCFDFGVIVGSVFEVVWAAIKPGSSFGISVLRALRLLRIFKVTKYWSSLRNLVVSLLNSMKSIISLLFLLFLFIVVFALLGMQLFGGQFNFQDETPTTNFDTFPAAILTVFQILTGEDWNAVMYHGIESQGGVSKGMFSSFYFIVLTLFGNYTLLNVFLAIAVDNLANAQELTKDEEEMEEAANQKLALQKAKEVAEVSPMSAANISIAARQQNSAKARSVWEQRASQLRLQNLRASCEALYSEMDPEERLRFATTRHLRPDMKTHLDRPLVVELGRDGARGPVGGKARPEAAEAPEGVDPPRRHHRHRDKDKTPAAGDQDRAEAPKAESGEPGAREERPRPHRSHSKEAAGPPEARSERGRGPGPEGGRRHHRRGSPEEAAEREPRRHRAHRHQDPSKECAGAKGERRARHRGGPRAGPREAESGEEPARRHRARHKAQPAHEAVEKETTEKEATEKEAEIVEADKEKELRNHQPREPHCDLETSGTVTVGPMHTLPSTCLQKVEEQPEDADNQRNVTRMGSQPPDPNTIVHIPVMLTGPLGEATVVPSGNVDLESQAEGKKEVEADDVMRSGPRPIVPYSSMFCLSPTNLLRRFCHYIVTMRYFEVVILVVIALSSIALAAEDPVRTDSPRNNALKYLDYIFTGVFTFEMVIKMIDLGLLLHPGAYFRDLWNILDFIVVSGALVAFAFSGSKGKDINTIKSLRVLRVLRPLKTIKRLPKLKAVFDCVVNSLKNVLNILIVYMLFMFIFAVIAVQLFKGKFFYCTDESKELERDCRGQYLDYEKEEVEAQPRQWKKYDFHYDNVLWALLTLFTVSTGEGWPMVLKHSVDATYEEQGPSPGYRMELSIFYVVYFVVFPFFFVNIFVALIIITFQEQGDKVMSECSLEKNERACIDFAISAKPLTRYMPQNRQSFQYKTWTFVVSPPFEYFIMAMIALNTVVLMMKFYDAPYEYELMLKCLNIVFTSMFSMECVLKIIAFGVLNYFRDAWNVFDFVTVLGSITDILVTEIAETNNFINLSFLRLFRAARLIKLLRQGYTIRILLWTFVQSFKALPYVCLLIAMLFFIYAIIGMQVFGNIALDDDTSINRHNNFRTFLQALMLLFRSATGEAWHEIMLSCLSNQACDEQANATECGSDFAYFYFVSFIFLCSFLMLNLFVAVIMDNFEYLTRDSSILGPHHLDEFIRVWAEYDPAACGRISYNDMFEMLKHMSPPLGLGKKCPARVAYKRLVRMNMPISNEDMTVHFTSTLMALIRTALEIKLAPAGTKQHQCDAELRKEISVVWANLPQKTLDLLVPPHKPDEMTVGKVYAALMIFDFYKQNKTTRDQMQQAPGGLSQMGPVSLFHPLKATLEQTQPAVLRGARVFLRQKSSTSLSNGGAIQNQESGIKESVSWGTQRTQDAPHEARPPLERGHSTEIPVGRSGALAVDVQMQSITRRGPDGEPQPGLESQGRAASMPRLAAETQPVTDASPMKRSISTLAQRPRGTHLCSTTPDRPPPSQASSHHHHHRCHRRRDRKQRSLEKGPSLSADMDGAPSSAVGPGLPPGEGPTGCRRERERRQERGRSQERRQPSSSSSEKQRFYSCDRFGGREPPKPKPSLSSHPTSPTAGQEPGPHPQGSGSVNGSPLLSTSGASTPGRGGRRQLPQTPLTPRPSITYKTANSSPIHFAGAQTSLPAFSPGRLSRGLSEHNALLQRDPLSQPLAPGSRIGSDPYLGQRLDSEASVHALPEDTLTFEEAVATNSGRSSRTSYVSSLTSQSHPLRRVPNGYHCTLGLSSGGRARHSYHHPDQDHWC
# T1 sequence (P54289 25-956 partner limits assumed): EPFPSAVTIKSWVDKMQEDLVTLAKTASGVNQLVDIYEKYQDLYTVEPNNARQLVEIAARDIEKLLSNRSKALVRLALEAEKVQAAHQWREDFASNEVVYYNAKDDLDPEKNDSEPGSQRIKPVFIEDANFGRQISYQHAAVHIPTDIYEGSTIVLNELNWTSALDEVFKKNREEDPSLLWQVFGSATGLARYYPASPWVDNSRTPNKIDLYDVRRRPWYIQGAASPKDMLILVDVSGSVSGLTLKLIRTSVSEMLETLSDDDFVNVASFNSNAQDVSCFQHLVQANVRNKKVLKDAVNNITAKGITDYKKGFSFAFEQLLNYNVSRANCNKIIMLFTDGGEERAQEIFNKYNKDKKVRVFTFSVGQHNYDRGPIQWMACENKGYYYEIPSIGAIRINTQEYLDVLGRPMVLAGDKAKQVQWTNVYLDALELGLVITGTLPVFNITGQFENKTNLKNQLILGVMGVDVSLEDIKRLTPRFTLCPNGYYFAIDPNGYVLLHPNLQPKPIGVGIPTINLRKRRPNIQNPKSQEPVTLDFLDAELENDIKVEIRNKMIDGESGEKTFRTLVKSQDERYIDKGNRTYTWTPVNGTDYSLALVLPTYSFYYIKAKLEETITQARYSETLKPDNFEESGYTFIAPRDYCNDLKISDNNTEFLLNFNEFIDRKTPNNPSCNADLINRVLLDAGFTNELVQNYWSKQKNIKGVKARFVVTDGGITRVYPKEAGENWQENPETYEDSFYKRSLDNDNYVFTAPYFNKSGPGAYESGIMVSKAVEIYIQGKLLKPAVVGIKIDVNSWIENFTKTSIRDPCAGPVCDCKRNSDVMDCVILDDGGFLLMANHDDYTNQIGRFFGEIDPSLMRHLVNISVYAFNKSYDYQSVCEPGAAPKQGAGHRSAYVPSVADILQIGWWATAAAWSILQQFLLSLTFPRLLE
# T1 sequence (P54289 957-1103 partner limits assumed): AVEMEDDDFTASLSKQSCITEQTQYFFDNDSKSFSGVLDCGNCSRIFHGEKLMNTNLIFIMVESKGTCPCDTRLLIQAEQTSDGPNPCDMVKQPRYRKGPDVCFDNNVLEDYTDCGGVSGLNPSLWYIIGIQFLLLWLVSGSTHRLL
# T1 sequence (P54284 whole entry partner): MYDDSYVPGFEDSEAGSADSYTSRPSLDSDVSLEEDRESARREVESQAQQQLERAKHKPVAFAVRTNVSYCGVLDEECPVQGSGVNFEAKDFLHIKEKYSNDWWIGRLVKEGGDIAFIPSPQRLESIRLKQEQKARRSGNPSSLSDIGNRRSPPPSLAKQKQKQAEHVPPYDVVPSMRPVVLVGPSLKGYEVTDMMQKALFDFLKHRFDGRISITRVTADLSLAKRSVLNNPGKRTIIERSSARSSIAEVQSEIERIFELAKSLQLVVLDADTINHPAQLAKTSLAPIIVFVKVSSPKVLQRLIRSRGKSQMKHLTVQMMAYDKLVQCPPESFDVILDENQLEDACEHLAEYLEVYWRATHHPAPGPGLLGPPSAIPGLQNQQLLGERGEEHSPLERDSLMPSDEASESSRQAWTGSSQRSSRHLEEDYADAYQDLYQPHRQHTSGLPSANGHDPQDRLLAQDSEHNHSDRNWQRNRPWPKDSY
row,Structure (SMILES),IC50 [nM]
1,"O=C(NC1CC1)c1cccc(C2=CCN(S(=O)(=O)c3c(F)cc(F)cc3F)CC2)n1 [1′-(2,4,6-Trifluorobenzenesulfonyl)-1′,2′,3′,6′-tetrahydro-[2,4′]bipyridinyl-6-carboxylic acid cyclopropylamide]",990
2,"O=C(NC1CC1)c1cccc(C2=CCN(S(=O)(=O)c3ccc(Cl)cc3Cl)CC2)n1 [1′-(2,4-Dichlorobenzenesulfonyl)-1′,2′,3′,6′-tetrahydro-[2,4′]bipyridinyl-6-carboxylic acid cyclopropylamide]",190
3,"CC(C)CS(=O)(=O)N1CC=C(c2cccc(C(=O)NC3CC3)n2)CC1 [1′-(2-Methylprop-1-ylsulfonyl)-1′,2′,3′,6′-tetrahydro-[2,4′]bipyridinyl-6-carboxylic acid cyclopropylamide]",1460
4,"O=C(NC1CC1)c1cccc(C2=CCN(S(=O)(=O)c3ccccc3C(F)(F)F)CC2)n1 [1′-(2-Trifluoromethylbenzenesulfonyl)-1′,2′,3′,6′-tetrahydro-[2,4′]bipyridinyl-6-carboxylic acid cyclopropylamide]",80
5,"O=C(NC1CC1)c1cccc(C2=CCN(S(=O)(=O)CCC(F)(F)F)CC2)n1 [1′-(3,3,3-Trifluoropropylsulfonyl)-1′,2′,3′,6′-tetrahydro-[2,4′]bipyridinyl-6-carboxylic acid cyclopropylamide]",3100
6,"O=C(NC1CC1)c1cccc(C2=CCN(S(=O)(=O)c3cc(Cl)cc(Cl)c3)CC2)n1 [1′-(3,5-Dichlorobenzenesulfonyl)-1′,2′,3′,6′-tetrahydro-[2,4′]bipyridinyl-6-carboxylic acid cyclopropylamide]",50
7,"O=C(NC1CC1)c1cccc(C2=CCN(S(=O)(=O)c3cccc(Cl)c3)CC2)n1 [1′-(3-Chlorobenzenesulfonyl)-1′,2′,3′,6′-tetrahydro-[2,4′]bipyridinyl-6-carboxylic acid cyclopropylamide]",80
8,"N#Cc1cc(S(=O)(=O)N2CC=C(c3cccc(C(=O)NC4CC4)n3)CC2)ccc1F [1′-(3-Cyano-4-fluorobenzenesulfonyl)-1′,2′,3′,6′-tetrahydro-[2,4′]bipyridinyl-6-carboxylic acid cyclopropylamide]",770
9,"N#Cc1cccc(S(=O)(=O)N2CC=C(c3cccc(C(=O)NC4CC4)n3)CC2)c1 [1′-(3-Cyanobenzenesulfonyl)-1′,2′,3′,6′-tetrahydro-[2,4′]bipyridinyl-6-carboxylic acid cyclopropylamide]",50
10,"O=C(NC1CC1)c1cccc(C2=CCN(S(=O)(=O)c3cccc(OC(F)(F)F)c3)CC2)n1 [1′-(3-Trifluoromethoxybenzenesulfonyl)-1′,2′,3′,6′-tetrahydro-[2,4′]bipyridinyl-6-carboxylic acid cyclopropylamide]",40
11,"O=S(=O)(c1cccc(C(F)(F)F)c1)N1CC=C(c2cccc(CO)n2)CC1 [1′-(3-Trifluoromethylbenzenesulfonyl)-1′,2′,3′,6′--tetrahydro-[2,4′]bipyridinyl-6-yl]methanol]",4240
12,"O=C(NCC(F)(F)F)c1cccc(C2=CCN(S(=O)(=O)c3cccc(C(F)(F)F)c3)CC2)n1 [1′-(3-Trifluoromethylbenzenesulfonyl)-1′,2′,3′,6′-tetrahydro-[2,4′]-bipyridinyl-6-carboxylic acid 2,2,2-trifluoroethylamide]",30
13,"O=C(NCCC(F)(F)F)c1cccc(C2=CCN(S(=O)(=O)c3cccc(C(F)(F)F)c3)CC2)n1 [1′-(3-Trifluoromethylbenzenesulfonyl)-1′,2′,3′,6′-tetrahydro-[2,4′]-bipyridinyl-6-carboxylic acid 3,3,3-trifluoropropylamide]",50
14,"O=C(NC(CO)CO)c1cccc(C2=CCN(S(=O)(=O)c3cccc(C(F)(F)F)c3)CC2)n1 [1′-(3-Trifluoromethylbenzenesulfonyl)-1′,2′,3′,6′-tetrahydro-[2,4′]bipyridinyl-6-carboxylic acid 1,3-dihydroxyprop-2-ylamide]",90
15,"O=C(NCCO)c1cccc(C2=CCN(S(=O)(=O)c3cccc(C(F)(F)F)c3)CC2)n1 [1′-(3-Trifluoromethylbenzenesulfonyl)-1′,2′,3′,6′-tetrahydro-[2,4′]bipyridinyl-6-carboxylic acid 2-hydroxyethylamide]",70
16,"O=C(NCC(F)(F)F)c1ncccc1C1=CCN(S(=O)(=O)c2cccc(C(F)(F)F)c2)CC1 [1′-(3-Trifluoromethylbenzenesulfonyl)-1′,2′,3′,6′-tetrahydro-[3,4′]bipyridinyl-2-carboxylic acid 2,2,2-trifluoroethylamide]",660
17,"O=C(NCCC(F)(F)F)c1ncccc1C1=CCN(S(=O)(=O)c2cccc(C(F)(F)F)c2)CC1 [1′-(3-Trifluoromethylbenzenesulfonyl)-1′,2′,3′,6′-tetrahydro-[3,4′]bipyridinyl-2-carboxylic acid 3,3,3-trifluoropropylamide]",420
18,"O=C(NCC1CC1)c1ncccc1C1=CCN(S(=O)(=O)c2cccc(C(F)(F)F)c2)CC1 [1′-(3-Trifluoromethylbenzenesulfonyl)-1′,2′,3′,6′-tetrahydro-[3,4′]bipyridinyl-2-carboxylic acid cyclopropylmethylamide]",140
19,"COC(=O)c1ncccc1C1=CCN(S(=O)(=O)c2cccc(C(F)(F)F)c2)CC1 [1′-(3-Trifluoromethylbenzenesulfonyl)-1′,2′,3′,6′-tetrahydro-[3,4′]bipyridinyl-2-carboxylic acid methyl ester]",> 20000
20,"O=C(NC1CC1)c1cccc(C2=CCN(S(=O)(=O)Cc3cccc(C(F)(F)F)c3)CC2)n1 [1′-(3-Trifluoromethylbenzylsulfonyl)-1′,2′,3′,6′-tetrahydro-[2,4′]bipyridinyl-6-carboxylic acid cyclopropylamide]",670
21,"O=C(NC1CC1)c1cccc(C2=CCN(S(=O)(=O)c3ccc(F)cc3)CC2)n1 [1′-(4-Fluorobenzenesulfonyl)-1′,2′,3′,6′-tetrahydro-[2,4′]bipyridinyl-6-carboxylic acid cyclopropylamide]",350
22,"O=C(NCC(F)(F)F)c1cccc(C2=CCN(S(=O)(=O)c3ccc(OC(F)(F)F)cc3)CC2)n1 [1′-(4-Trifluoromethoxybenzenesulfonyl)-1′,2′,3′,6′-tetrahydro-[2,4′]-bipyridinyl-6-carboxylic acid 2,2,2-trifluoroethylamide]",430
23,"O=C(NCCC(F)(F)F)c1cccc(C2=CCN(S(=O)(=O)c3ccc(OC(F)(F)F)cc3)CC2)n1 [1′-(4-Trifluoromethoxybenzenesulfonyl)-1′,2′,3′,6′-tetrahydro-[2,4′]-bipyridinyl-6-carboxylic acid 3,3,3-trifluoropropylamide]",250
24,"O=C(Nc1ccc(F)cc1)c1cccc(C2=CCN(S(=O)(=O)c3ccc(OC(F)(F)F)cc3)CC2)n1 [1′-(4-Trifluoromethoxybenzenesulfonyl)-1′,2′,3′,6′-tetrahydro-[2,4′]-bipyridinyl-6-carboxylic acid 4-fluorophenylamide]",1920
25,"O=C(NC1CC1)c1cccc(C2=CCN(S(=O)(=O)c3ccc(OC(F)(F)F)cc3)CC2)n1 [1′-(4-Trifluoromethoxybenzenesulfonyl)-1′,2′,3′,6′-tetrahydro-[2,4′]bipyridinyl-6-carboxylic acid cyclopropylamide]",290
26,"O=C(NCC(F)(F)F)c1ncccc1C1=CCN(S(=O)(=O)c2ccc(OC(F)(F)F)cc2)CC1 [1′-(4-Trifluoromethoxybenzenesulfonyl)-1′,2′,3′,6′-tetrahydro-[3,4′]bipyridinyl-2-carboxylic acid 2,2,2-trifluoroethylamide]",960
27,"O=C(NCCC(F)(F)F)c1ncccc1C1=CCN(S(=O)(=O)c2ccc(OC(F)(F)F)cc2)CC1 [1′-(4-Trifluoromethoxybenzenesulfonyl)-1′,2′,3′,6′-tetrahydro-[3,4′]bipyridinyl-2-carboxylic acid 3,3,3-trifluoropropylamide]",940
28,"O=C(NCC1CC1)c1ncccc1C1=CCN(S(=O)(=O)c2ccc(OC(F)(F)F)cc2)CC1 [1′-(4-Trifluoromethoxybenzenesulfonyl)-1′,2′,3′,6′-tetrahydro-[3,4′]bipyridinyl-2-carboxylic acid cyclopropylmethylamide]",690
29,"O=C(NC1CC1)c1cccc(C2=CCN(S(=O)(=O)c3ccc(C(F)(F)F)cc3)CC2)n1 [1′-(4-Trifluoromethylbenzenesulfonyl)-1′,2′,3′,6′-tetrahydro-[2,4′]bipyridinyl-6-carboxylic acid cyclopropylamide]",110
